ChEMBL document CHEMBL3997822, “Asymmetric total synthesis of tetrahydroprotoberberine derivatives and evaluation of their binding affinities at dopamine receptors” (Bioorg Med Chem Lett, 2017)

Key:
D(3) dopamine receptor [1] = molecular target: T1, D(3) dopamine receptor (Homo sapiens, UniProt P35462); experiment: Displacement of [3H]N-methylspiperone from human dopamine D3 receptor after 1 hr
D(2) dopamine receptor [2] = molecular target: T2, D(2) dopamine receptor (Homo sapiens, UniProt P14416); experiment: Displacement of [3H]N-methylspiperone from human dopamine D2 receptor after 1 hr
D(4) dopamine receptor [3] = molecular target: T3, D(4) dopamine receptor (Homo sapiens, UniProt P21917); experiment: Displacement of [3H]N-methylspiperone from human dopamine D4 receptor after 1 hr
T3 sequence (P21917 whole entry): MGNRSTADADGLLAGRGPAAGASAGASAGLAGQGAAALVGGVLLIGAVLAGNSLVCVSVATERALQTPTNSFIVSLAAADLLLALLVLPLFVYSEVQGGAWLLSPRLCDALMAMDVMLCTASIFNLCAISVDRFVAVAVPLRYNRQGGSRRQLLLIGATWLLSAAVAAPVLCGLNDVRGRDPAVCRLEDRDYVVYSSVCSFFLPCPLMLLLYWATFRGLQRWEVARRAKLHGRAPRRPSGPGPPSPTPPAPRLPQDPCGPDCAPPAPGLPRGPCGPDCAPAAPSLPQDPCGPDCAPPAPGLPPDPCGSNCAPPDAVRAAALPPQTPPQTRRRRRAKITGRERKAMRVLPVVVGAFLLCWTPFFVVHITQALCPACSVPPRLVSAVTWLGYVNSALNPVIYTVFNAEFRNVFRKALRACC

D(1A) dopamine receptor [4] = molecular target: T4, D(1A) dopamine receptor (Homo sapiens, UniProt P21728); experiment: Displacement of [3H]SCH23390 from human dopamine D1 receptor after 1 hr
D(1B) dopamine receptor [5] = molecular target: T5, D(1B) dopamine receptor (Homo sapiens, UniProt P21918); experiment: Displacement of [3H]SCH23390 from human dopamine D5 receptor after 1 hr
D(4) dopamine receptor [6] = molecular target: T3, D(4) dopamine receptor; experiment: Displacement of [3H]SCH23390 from human dopamine D4 receptor expressed in HEK293 cells after 1 hr; assay type: cell-based
D(1A) dopamine receptor [7] = molecular target: T4, D(1A) dopamine receptor; experiment: Displacement of [3H]SCH23390 from human 3HA-tagged dopamine D1 receptor expressed in HEK293 cells after 1 hr; assay type: cell-based
D(3) dopamine receptor [8] = molecular target: T1, D(3) dopamine receptor; experiment: biochemical
D(2) dopamine receptor [9] = molecular target: T2, D(2) dopamine receptor; experiment: Displacement of [3H]SCH23390 from human FLAG-tagged dopamine D2 receptor expressed in HEK293 cells after 1 hr; assay type: cell-based
D(1B) dopamine receptor [10] = molecular target: T5, D(1B) dopamine receptor; details: hek293

T2 sequence (P14416 whole entry): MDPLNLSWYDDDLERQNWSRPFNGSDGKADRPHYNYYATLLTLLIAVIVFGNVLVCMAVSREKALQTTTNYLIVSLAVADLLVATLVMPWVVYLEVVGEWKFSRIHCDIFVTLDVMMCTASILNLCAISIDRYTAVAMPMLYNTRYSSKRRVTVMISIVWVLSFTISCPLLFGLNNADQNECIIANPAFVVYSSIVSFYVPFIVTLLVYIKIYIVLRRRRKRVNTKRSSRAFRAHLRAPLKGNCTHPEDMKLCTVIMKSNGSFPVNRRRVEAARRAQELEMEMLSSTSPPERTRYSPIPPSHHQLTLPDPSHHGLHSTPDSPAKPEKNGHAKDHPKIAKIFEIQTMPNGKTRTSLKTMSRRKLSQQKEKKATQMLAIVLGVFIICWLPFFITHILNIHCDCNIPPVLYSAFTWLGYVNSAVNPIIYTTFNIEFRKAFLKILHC
T4 sequence (P21728 whole entry): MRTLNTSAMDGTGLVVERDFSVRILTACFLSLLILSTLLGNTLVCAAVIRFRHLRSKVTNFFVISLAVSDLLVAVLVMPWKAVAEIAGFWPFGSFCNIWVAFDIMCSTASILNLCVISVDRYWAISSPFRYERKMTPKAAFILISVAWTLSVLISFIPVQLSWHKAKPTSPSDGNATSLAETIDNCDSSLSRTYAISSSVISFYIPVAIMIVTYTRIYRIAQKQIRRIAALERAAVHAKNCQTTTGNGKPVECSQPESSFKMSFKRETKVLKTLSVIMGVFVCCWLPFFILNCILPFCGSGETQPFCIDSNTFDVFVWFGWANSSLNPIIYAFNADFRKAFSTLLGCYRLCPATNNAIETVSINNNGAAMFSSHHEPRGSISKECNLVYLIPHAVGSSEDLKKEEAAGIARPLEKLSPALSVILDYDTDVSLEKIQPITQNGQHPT
T5 sequence (P21918 whole entry): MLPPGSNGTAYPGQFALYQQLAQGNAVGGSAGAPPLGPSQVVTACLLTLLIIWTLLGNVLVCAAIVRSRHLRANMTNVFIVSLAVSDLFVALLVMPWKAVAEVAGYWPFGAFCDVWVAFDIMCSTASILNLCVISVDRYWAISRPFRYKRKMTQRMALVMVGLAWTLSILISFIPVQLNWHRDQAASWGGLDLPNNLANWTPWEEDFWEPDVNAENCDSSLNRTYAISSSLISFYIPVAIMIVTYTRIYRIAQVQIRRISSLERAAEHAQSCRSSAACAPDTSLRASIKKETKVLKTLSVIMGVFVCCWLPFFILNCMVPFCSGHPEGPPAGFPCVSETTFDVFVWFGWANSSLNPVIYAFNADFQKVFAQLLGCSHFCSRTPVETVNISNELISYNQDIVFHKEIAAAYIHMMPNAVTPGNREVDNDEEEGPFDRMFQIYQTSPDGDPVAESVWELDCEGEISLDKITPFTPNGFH
T1 sequence (P35462 whole entry): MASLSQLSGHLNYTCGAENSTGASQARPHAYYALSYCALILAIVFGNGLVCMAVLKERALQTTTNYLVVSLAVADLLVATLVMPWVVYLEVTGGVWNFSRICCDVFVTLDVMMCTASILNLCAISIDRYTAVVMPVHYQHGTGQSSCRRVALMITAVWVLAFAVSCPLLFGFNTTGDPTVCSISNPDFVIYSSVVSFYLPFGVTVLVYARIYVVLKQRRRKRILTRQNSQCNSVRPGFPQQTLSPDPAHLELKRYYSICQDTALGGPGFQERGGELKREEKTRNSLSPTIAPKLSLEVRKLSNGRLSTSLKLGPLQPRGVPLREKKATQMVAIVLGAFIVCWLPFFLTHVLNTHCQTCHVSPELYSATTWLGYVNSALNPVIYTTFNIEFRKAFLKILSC

SMILES | Ki (D(3) dopamine receptor [1]) [nM] | Ki (D(2) dopamine receptor [2]) [nM] | Ki (D(4) dopamine receptor [3]) [nM] | Ki (D(1A) dopamine receptor [4]) [nM] | Ki (D(1B) dopamine receptor [5]) [nM] | Ki (D(4) dopamine receptor [6]) [nM] | Ki (D(1A) dopamine receptor [7]) [nM] | Ki (D(3) dopamine receptor [8]) [nM] | Ki (D(2) dopamine receptor [9]) [nM] | Ki (D(1B) dopamine receptor [10]) [nM] | Ki (D(1A) dopamine receptor [7]; hek293) [nM]
COc1cc2c(cc1O)[C@@H]1Cc3ccc(OC)c(OC)c3CN1CC2 | – | – | – | – | – | 77.4 | […] | 37.3 | – | – | –
COc1ccc2c(c1OC)CN1CCc3cc4c(cc3[C@@H]1C2)OCO4 [CANADINE] | 433 | 80.2 | 486 | 48.6 | 62.1 | – | – | – | – | – | –
COc1cc2c(cc1OC)[C@@H]1Cc3ccc(OC)c(OC)c3CN1CC2 [TETRAHYDROPALMATINE] | – | – | – | – | – | > 1000 | – | – | 1120 | 305 | 153

Second part, led by results:

Ki (D(3) dopamine receptor [1]) [nM] | Ki (D(2) dopamine receptor [2]) [nM] | Ki (D(4) dopamine receptor [3]) [nM] | Ki (D(1A) dopamine receptor [4]) [nM] | Ki (D(1B) dopamine receptor [5]) [nM] | SMILES | Ki (D(4) dopamine receptor [6]) [nM] | Ki (D(1A) dopamine receptor [7]) [nM] | Ki (D(3) dopamine receptor [8]) [nM] | Ki (D(2) dopamine receptor [9]) [nM] | Ki (D(1B) dopamine receptor [10]) [nM] | Ki (D(1A) dopamine receptor [7]; hek293) [nM]
82.4 | 49.2 | 1980 | 6.5 | 15.1 | COc1c(O)ccc2c1CN1CCc3cc4c(cc3[C@@H]1C2)OCO4 | – | – | – | – | – | –
262 | 42.4 | > 1000 | 199 | 313 | COc1cc2c(cc1O)CCN1Cc3c(ccc(OC)c3OC)C[C@@H]21 | – | – | – | – | – | –
1710 | 533 | > 1000 | 107 | 242 | COc1cc2c(cc1OC)[C@@H]1Cc3ccc(O)c(OC)c3CN1CC2 | – | – | – | – | – | –
